Molecules are shown by their SMILES. Counter-ions that a name gives are not always drawn. Like-named read-outs stand apart in the source and are kept apart here. A value given as a limit tells only on which side of the number the result lay.

We go through one compound from patent publication US20250214966A1, “Crystalline Salt Form Of A SHP2 Inhibitor” (Array BioPharma Inc., priority 2022, published 2025).

What all share (assay type): physicochemical
The nature of data set [1]: Dynamic vapor sorption of salts (Table 14). The settings on record: 25° C. On the procedure:
DVS (Table 14): Approximately, 10-20 mg of sample was placed into a mesh vapor sorption balance pan and loaded into a DVS Intrinsic dynamic vapor sorption balance by Surface Measurement Systems. The sample was subjected to a ramping profile from 40-90% relative humidity (RH) at 10% increments, maintaining the sample at each step until a stable weight had been achieved (dm/dt 0.004%, minimum step length 30 minutes, maximum step length 500 minutes) at 25° C. After completion of the sorption cycle, the sample was dried using the same procedure to 0% RH and then a second sorption cycle back to 40% RH. Two cycles were performed. Theweight change during the sorption/desorption cycles were plotted, allowing for the hygroscopic nature of the sample to be determined. XRPD analysis was then carried out on any solid retained. […] The sample was subjected to a ramping profile from 40-90% relative humidity (RH) at 10% increments, maintaining the sample at each step until a stable weight had been achieved (dm/dt 0.004%, minimum step length 30 minutes, maximum step length 500 minutes) at 25° C. After completion of the sorption cycle, the sample was dried using the same procedure to 0% RH and then a second sorption cycle back to 40% RH. Two cycles were performed. The weight change during the sorption/desorption cycles were plotted, allowing for the hygroscopic nature of the sample to be determined. XRPD analysis was then carried out on any solid retained.

A short description of data set [2]: TGA/DSC of salts (Table 14). The settings on record: 10° C./min. On the procedure:
TGA/DSC (Table 14): Approximately, 5-10 mg of material was added into a pre-tared open aluminum pan and loaded into a TA Instruments Discovery SDT 650 Auto—Simultaneous DSC and held at room temperature. The sample was then heated at a rate of 10° C./min from 20° C. (ambient) to 400° C. during which time the change in sample weight was recorded along with the heat flow response (DSC). Nitrogen was used as the sample purge gas, at a flow rate of 200 cm3/min.
DSC (Table 14): Approximately, 1-5 mg of material was weighed into an aluminum DSC pan and sealed nonhermetically with an aluminum lid. The sample pan was then loaded into a TA Instruments Discovery DSC 2500 differential scanning calorimeter equipped with a RC90 cooler. The sample and reference were heated to 310° C. at a scan rate of 10° C./min and the resulting heat flow response monitored. The sample was re-cooled to 20° C. and then reheated again to 205° C. all at 10° C./min. Nitrogen was used as the purge gas, at a flow rate of 50 cm^3/min.

A short description of data set [3]: Solubility of salts in buffer systems at 37° C. (Table 14). The settings on record: thermodynamic from solid, 20 mg in 1 mL. On the procedure: The solubility (Table 14) was determined by adding 20 mg of salts (Examples 3 to 8) into 3 HPLC vials, to each vial, a magnetic stirrer bar was added along with 1 mL of the appropriate buffer system (pH 1.2 HCl, pH 4.5 sodium acetate, or pH 6.8 phosphate). The samples were agitated at 37° C. for […]. After 24 hours, the slurries were isolated by centrifugation filtration and isolated mother liquors were analyzed by HPLC.
HPLC method (Table 14): A Dionex Ultimate 3000 HPLC instrument was used with a Waters XSelect HSS T3 Column (100 angstrom, 4.6×150 mm, 5 μm). The column temperature was set to 20° C., the UV wavelength set to 254 nm, the injection volume was 10 μL, with a flow rate of 1.0 mL/min. 10 mM ammonium acetate adjusted to pH 4.8 was used as a mobile phase A, and acetonitrile was used as mobile phase B. The gradient method was set up to achieve 15% mobile phase B at 0 minutes, 95% mobile phase B at 17 minutes—held until 22 minutes, 15% mobile phase B at 22.1 minutes—held until 28 minutes.

With `Nc1nccc(Sc2cnc(N3CCC4(CC3)Cc3ccccc3[C@H]4N)nn2)c1Cl` [Example 3, (S)-1′-(6-((2-amino-3-chloropyridin-4-yl)thio)-1,2,4-triazin-3-yl)-1,3-dihydrospiro[indene-2,4′-piperidin]-1-amine Mono Succinate Salt Form 1], in data set [1], the DVS hygroscopic nature entry is listed as “Slightly”. Further, the “DVS Wt.” value in data set [1] (up to 70% RH, possible hydration above 70% RH) is “hygroscopic 0.7%”. Moreover, the “TGA/DSC Melt/degradation” value in data set [2] came to 197.3 °C. Besides, the solubility – broadly, the concentration that dissolves in the medium under given conditions – at 18 h in data set [3] (pH 1.2 HCl buffer, simulated gastric fluid, pH 1.2 HCl, read-out: Solubility pH 1.2 HCl) was above 20000 µg/mL; in data set [3] (pH 4.5 sodium acetate buffer, aqueous buffer, pH 4.5 sodium acetate, read-out: Solubility pH 4.5 Sodium Acetate), 200 µg/mL; in data set [3] (pH 6.8 phosphate buffer, aqueous buffer, pH 6.8 phosphate, read-out: Solubility Ph 6.8 Phosphate) it was 1300 µg/mL.
